Measurements: patent US8481597B2, “Use of (-) (3-trihalomethylphenoxy) (4-halophenyl) acetic acid derivatives for treatment of insulin resistance, type 2 diabetes, hyperlipidemia and hyperuricemia” (Metabolex, Inc., priority 1999, dated 2013)
“Also recorded” adds a separate entry of the source.

Assays:
[1] = cited from earlier work
[2] = system: Zucker diabetic fatty (ZDF) rats; assay: Lipid lowering in Zucker Diabetic Fatty rats (Example 11); type: in vivo; conditions: for plasma cholesterol, in words: Experiment I, 13 days, racemate 50 mg/kg/day, enantiomers 25 mg/kg/day
Description: Male Zucker diabetic fatty (ZDF) rats were obtained from GMI Laboratories (Indianapolis, Ind.) at 9 weeks of age. Vehicle or enantiomers of halofenate administered by oral gavage on a daily basis starting at 74 days of age. Initial blood samples were obtained for analysis one day before treatment and at the indicated times in the treatment protocol. Blood was analyzed for plasma triglyceride and cholesterol by standard techniques.

C57BL/6J ob/ob mice [3] = assay: Time course of glucose-lowering after a single oral dose in diabetic ob/ob mice (Example 8); type: in vivo; conditions: single oral dose 250 mg/kg; for plasma glucose at 24 hours: vehicle 408±16.2
cyclooxygenase 1 (COX-1) = target: T1, cyclooxygenase 1 (COX-1) (Homo sapiens, UniProt P23219); assay: COX-1 inhibition in human whole blood assay, TXB2 production (Example 19); type: cell-based
T1 construct: was conducted using fresh human blood from healthy donors; endogenous in cells; host or cells: heparinized fresh human whole blood, stimulated with calcium ionophore A23187
Description: An assay for cyclooxygenase 1 (COX-1) inhibition by the compounds of the present invention was conducted using fresh human blood from healthy donors. […] The enzyme was activated by the commercially available calcium ionophore A23187.
This bioassay is based on the production of thromboxane B2 (TXB2) after COX-1 activation. When activated, COX-1 generates prostaglandin H2 which is then converted to thromboxane A2 (TXA2) by thromboxane synthase and then finally to thromboxane B2 by non-enzymatic […]. In addition, PGE2 levels were measured to exclude inhibition of thromboxane synthase. This assay allows discrimination between COX-1 and thromboxane synthase inhibition.
TXB2 and PGE2 were measured by commercially available immunoassay kits purchased from Assay Designs, Inc. (Ann Arbor, Mich.). All other chemicals were from Sigma except as noted. […] Immediately before use, all compounds were diluted 1:10 in RPMI-1640 medium (Gibco BRL, 11875-093) to make a 10× concentrated stock solution. The 10×RPMI-1640 stock solutions of the calcium ionophore were prepared in an identical manner. […] COX-1 was then activated by adding 25 microliters of the 10× stock solution of 25 micromolar calcium ionophore. The plates were shaken for 10 minutes at room temperature and then incubated at 37° C. for an additional 30 minutes. After these incubation times, the plates were centrifuged at 2,000 g for 5 minutes. Two microliters of plasma were taken from each reaction for the measurement of TXB2 using an enzyme immunoassay kit from Assay Designs, Inc. The PGE2 level in the same reaction was measured using a PGE2 enzyme immunoassay kit from Assay Designs, Inc.
The results of the assay are presented as the percent inhibition of COX-1 activity.

Zucker fa/fa rats [4] = assay: Oral glucose challenge in Zucker fatty rats (Example 10); type: in vivo; conditions: racemate 100 mg/kg, enantiomers 50 and 100 mg/kg
Description: (§1) Prior to treatment, rats were assigned to 6 groups based on body weight. Each treatment group consisted of 8 rats. […] The gavage volume was 10 ml/kg. All rats received an oral glucose challenge (1.9 g/kg) 5.5 hours after the treatment and 4 hours after withdrawal of the food. Blood samples were taken at 0, 15, 30, 60, 90, 120, and 180 minutes following the glucose challenge for plasma glucose measurement. […] On day 5, rats received the intravenous insulin (0.75 U/kg) 5.5 hours after the last dose and 4 hours after withdrawal of the food. Blood samples were taken at 3, 6, 9, 12, 15 and 18 minutes following the insulin injection for plasma glucose measurement.

C57BL/6J ob/ob mice [5] = assay: Glucose and insulin lowering on daily oral administration in diabetic ob/ob mice (Example 9); type: in vivo; conditions: for plasma glucose relative to control animals, in words / plasma insulin relative to vehicle control, in words: daily oral, racemate 250 mg/kg/day, enantiomers 125 and 250 mg/kg/day
Description: The gavage volume was 10 ml/kg.

CYP2C9 = CYP2C9 (Homo sapiens, UniProt P11712)
C57BL/6J ob/ob mice [6] = assay: Glucose lowering of (±) and (−) halofenate analogs in ob/ob mice (Example 12); type: in vivo; conditions: for time points with significantly reduced plasma glucose concentrations: 150 mg/kg oral single dose
ZDF rats = assay: Plasma glucose in ZDF rats, (−) halofenate vs (+) halofenate (Example 13); type: in vivo; conditions: 50 mg/kg oral once a day for 3 days
Description: Male 8-9 week old ZDF rats were purchased from Genetic Models, Inc. (Indianapolis, Ind.). […] Rats that had 4-hour fasting plasma glucose levels between 200 and 500 mg/dL were used. […] The gavage volume was 5 ml/kg. Blood samples were taken at 5 hours post dose on day 2 and 3.

Zucker fa/fa rats [7] = assay: Short insulin tolerance test in Zucker fatty rats (Example 10); type: in vivo; conditions: 50 mg/kg/day oral for 5 days
Description: as §1

[8] = system: oxonic acid induced hyperuricemic rats; assay: Plasma uric acid in oxonic acid induced hyperuricemic rats (Example 17); type: in vivo, SD rats; conditions: oral 50 mg/kg for 3 days, 100 mg/kg on the 4th day; blood 6 hours post gavage on day 4
Description: Male SD rats, weight 275-300 g were purchased from Charles River. […] To establish a hyperuricemic state, animals were put on a diet containing 2.5% (w/w) of oxonic acid (Sigma Chemical Co, St. Louis, Mo., USA) throughout the experiment. Oxonic acid elevates plasma uric acid by inhibiting uricase. Rats were screened for plasma uric acid levels 3 days after they were placed on the diet, and those that had extreme plasma uric acid levels were excluded. Rats were assigned to one of three groups and the mean uric acid levels were equivalent in each group. […] Oxonic acid was delivered in a liquid formulation containing 0.9% (w/v) methylcellulose. The gavage and injection volumes were 5 ml/kg. Blood samples were taken at 6 hours post oral gavage on day 4. Plasma uric acid levels were determined colorimetrically using the Infinity Uric Acid Reagent (Sigma Chemical Co, St. Louis, Mo., USA).

[9] = Experiment II, 37.5 mg/kg/day (High dose)

Sequence of CYP2C9 (P11712 whole entry): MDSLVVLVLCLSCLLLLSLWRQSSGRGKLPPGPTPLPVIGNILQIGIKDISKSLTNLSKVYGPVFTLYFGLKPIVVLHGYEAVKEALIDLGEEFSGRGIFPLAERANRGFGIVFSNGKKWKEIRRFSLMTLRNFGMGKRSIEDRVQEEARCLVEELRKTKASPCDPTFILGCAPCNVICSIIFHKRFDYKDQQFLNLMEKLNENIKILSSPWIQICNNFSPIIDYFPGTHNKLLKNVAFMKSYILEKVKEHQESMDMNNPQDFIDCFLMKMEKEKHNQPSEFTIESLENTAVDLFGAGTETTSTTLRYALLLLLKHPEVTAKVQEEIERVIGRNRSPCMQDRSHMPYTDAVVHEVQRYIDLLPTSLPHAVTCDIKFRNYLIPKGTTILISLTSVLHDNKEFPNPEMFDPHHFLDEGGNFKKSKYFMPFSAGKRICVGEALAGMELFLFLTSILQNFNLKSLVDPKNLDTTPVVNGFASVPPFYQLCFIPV
T1 sequence (P23219 24-599): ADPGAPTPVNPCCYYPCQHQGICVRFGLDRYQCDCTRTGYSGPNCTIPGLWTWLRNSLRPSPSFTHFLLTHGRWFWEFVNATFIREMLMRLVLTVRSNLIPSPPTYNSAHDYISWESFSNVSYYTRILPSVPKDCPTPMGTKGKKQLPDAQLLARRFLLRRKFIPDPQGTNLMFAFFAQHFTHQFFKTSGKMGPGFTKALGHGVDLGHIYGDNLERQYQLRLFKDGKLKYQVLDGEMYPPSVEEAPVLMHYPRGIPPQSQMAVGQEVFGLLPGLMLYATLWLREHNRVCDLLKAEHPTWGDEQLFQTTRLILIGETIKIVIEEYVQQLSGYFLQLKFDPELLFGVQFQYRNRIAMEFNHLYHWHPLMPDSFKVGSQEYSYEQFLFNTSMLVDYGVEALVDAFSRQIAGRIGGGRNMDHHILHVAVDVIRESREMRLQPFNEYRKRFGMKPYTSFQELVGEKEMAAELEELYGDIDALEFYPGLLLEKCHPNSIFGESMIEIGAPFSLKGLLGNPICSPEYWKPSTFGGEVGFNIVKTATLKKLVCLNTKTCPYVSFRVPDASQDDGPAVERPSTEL

## CC(=O)NCCOC(=O)C(Oc1cccc(C(F)(F)F)c1)c1ccc(Cl)cc1 (racemic) [racemic halofenate, 2-acetamidoethyl (4-chlorophenyl) (3-trifluoromethylphenoxy)acetate, reference compound]
[1]; previous clinical studies (Friedberg et al. 1986)
  side effects in patients: gastrointestinal bleeding from stomach and peptic ulcers; also recorded: increased risk of gastrointestinal side effects such as upper gastrointestinal ulcers and bleeding
[1]; previous studies from the 1970's
  effect on glucose in patients with diabetes treated with the drug alone: minimal effect on glucose
[2]
  plasma cholesterol, in words: plasma cholesterol declined with treatment
C57BL/6J ob/ob mice [3]
  time course of glucose-lowering, in words: significantly reduced plasma glucose concentrations at most of the timepoints
  time of peak glucose-lowering activity: 9 h
  plasma glucose at 24 hours: 259.3 ± 20.8 mg/dL
Cyclooxygenase 1 (COX-1)
  IC50: ~1000 µM
Zucker fa/fa rats [4]
  incremental glucose area under the curve (AUC) relative to vehicle control, in words: not statistically significant
Zucker fa/fa rats [4]; single oral dose 5.5 hours before challenge
  plasma glucose after oral glucose challenge, in words: The plasma glucose was reduced
C57BL/6J ob/ob mice [5]
  plasma glucose relative to control animals, in words: Significant decreases in glucose levels
  plasma insulin relative to vehicle control, in words: insulins were lower

## Nc1ccc(S(=O)(=O)Nc2ccnn2-c2ccccc2)cc1 [SFZ, sulfaphenazole, reference compound]
CYP2C9
  4-OH TB Production: BQL
CYP2C9; both, human, microsomes
  % Inhibition (Tolbutamide, CYP2C9): ~100%

## CC(=O)NCCOC(=O)C(Oc1cccc(C(F)(F)F)c1)c1ccc(Br)cc1 (single isomer, unassigned; (-)) [(−)Analog 29]
C57BL/6J ob/ob mice [6]
  time points with significantly reduced plasma glucose concentrations: 6 h

## CN(C)CCOC(=O)C(Oc1cccc(C(F)(F)F)c1)c1ccc(Cl)cc1 (racemic) [(±)Analog 35]
C57BL/6J ob/ob mice [6]; 125 mg/kg oral once a day, 6 hours after first dose
  6 hours Glucose: 319.6 ± 26.7 mg/dL
C57BL/6J ob/ob mice [6]; 125 mg/kg oral once a day, 6 hours after second dose
  30 hours Glucose: 276.8 ± 17.6 mg/dL
C57BL/6J ob/ob mice [6]; 125 mg/kg oral once a day, 6 hours after third dose
  54 hours Glucose: 286.2 ± 31.5 mg/dL
C57BL/6J ob/ob mice [6]; baseline before dosing, group later given 125 mg/kg oral once a day
  Predose Glucose: 387.0 ± 18.0 mg/dL

## CN(C)C(=O)COC(=O)C(Oc1cccc(C(F)(F)F)c1)c1ccc(Cl)cc1 (single isomer, unassigned; (-)) [(−)Analog 38]
C57BL/6J ob/ob mice [6]
  time points with significantly reduced plasma glucose concentrations: 6 h

## CC(=O)NCCOC(=O)C(Oc1cccc(C(F)(F)F)c1)c1ccc(Cl)cc1 (single isomer, unassigned; (+)) [(+) halofenate, (+) 2-Acetamidoethyl 4-Chlorophenyl-(3-trifluoromethylphenoxy)-acetate, reference compound]
ZDF rats
  plasma glucose concentrations compared to vehicle-treated animals, in words: failed to reduce plasma glucose concentrations
[2]
  plasma cholesterol, in words: remained relatively constant
[2]; [9]
  days of treatment with significantly lower plasma cholesterol vs control: 7 days
  plasma triglyceride, in words: significant lowering of plasma triglyceride
C57BL/6J ob/ob mice [3]
  earliest time of plasma glucose reduction / significant activity: 4.5 h
  time of peak glucose-lowering activity: 7.5 h
  plasma glucose at 24 hours: 306 ± 28.5 mg/dL
Zucker fa/fa rats [7]
  insulin sensitivity (slope of decline in glucose after i.v. insulin), in words: small effect on insulin sensitivity that was not significantly different from the vehicle-treated control
Zucker fa/fa rats [4]
  incremental glucose area under the curve (AUC) relative to vehicle control, in words: not statistically significant
C57BL/6J ob/ob mice [5]; 125 mg/kg/day oral, ob/ob mice
  overnight fasting plasma insulin after 5 days treatment, in words: did not lower plasma insulin
C57BL/6J ob/ob mice [5]; 250 mg/kg/day oral, ob/ob mice
  overnight fasting plasma insulin after 5 days treatment, in words: resulted in a decrease in plasma insulin
C57BL/6J ob/ob mice [5]; 250 mg/kg/day oral, ob/ob mice, control 185.4±12.3
  plasma glucose following an overnight fast after 5 days treatment: 127.2 ± 9.7 mg/dL
C57BL/6J ob/ob mice [5]
  plasma glucose relative to control animals, in words: Significant decreases in glucose levels
  plasma insulin relative to vehicle control, in words: insulins were lower
[8]
  plasma uric acid levels, in words: lowered plasma uric acid levels, but it was not statistically significant

## O=C(NCCOC(=O)C(Oc1cccc(C(F)(F)F)c1)c1ccc(Cl)cc1)c1ccccc1 (single isomer, unassigned; (-)) [(−)Analog 36]
C57BL/6J ob/ob mice [6]
  time points with significantly reduced plasma glucose concentrations: 6 h

## NC(=O)COC(=O)C(Oc1cccc(C(F)(F)F)c1)c1ccc(Cl)cc1 (single isomer, unassigned; (-)) [(−)Analog 37]
C57BL/6J ob/ob mice [6]
  time points with significantly reduced plasma glucose concentrations: 6 h

## NC(=O)COC(=O)C(Oc1cccc(C(F)(F)F)c1)c1ccc(Cl)cc1 (racemic) [(±)Analog 37]
C57BL/6J ob/ob mice [6]; 125 mg/kg oral once a day
  time points with significantly lowered plasma glucose concentrations: 54 h
